Data set [1] can be described thus: Cyclosporine, tacrolimus and sirolimus serum levels in transplant recipients. Type of data set: in vivo. The conditions noted are these: human, 12 months post-transplantation, mean ± SEM. On the procedure:
(§1) The serum creatinine level was measured using a Synchron Cx4 autoanalyzer (Beckman Coulter, Villepinte, France). The glomerular filtration rate (GFR) was evaluated by iohexol clearance at 3- and 12-months post transplant as previously described^25. Cyclosporine and tacrolimus serum levels were determined by radioimmunoas say and sirolimus serum levels by high-performance liquid chromatography^26.

The subject of data set [2] is kidney allograft microcirculation inflammation. Put plainly: Microcirculation inflammation in kidney biopsies, Banff classification. Type of data set: in vivo, human. To be noted: Tx aPL+ Siro+, mean ± SEM. The source says:
(§2) Biopsy samples and morphological analysis: Human kidney biopsies were either fixed, in alcoholic Bouin's solution (native kidneys) or in alcohol-formalin-acetic acid solution (transplant kidneys). Carotid and left anterior descending arteries from autopsy cases were fixed in formalin. All samples were then embedded in paraffin. Four-μm sections were stained with Periodic Acid Schiff (PAS), Masson's trichrome and hematoxyin and eosin (H&E). Schiff (PAS), Masson's trichrome and hematoxylin and eosin (HE). Kidney biopsies were independently examined and scored by two pathologists at Necker Hospital. Lesions related to APS-nephropathy were quantified according to the usual criteria^12. For each biopsy, the number of vessels displaying fibrous intimal hyperplasia were counted in all the fields of the section, and the data were expressed as the number of damaged vessels for the total number of vascular sections. Lesions related to allograft nephropathy were evaluated according to the Banff classification^27, which takes into account glomerular, tubular and interstitial changes. Autopsy cases were carefully examined by two pathologists at La Pitie Salpetiere Hospital. Vascular lesions, and in particular fibrous intimal hyperplasia, were searched for and characterized in all the tissues.

Data set [3] relates to kidney transplant recipients with antiphospholipid antibodies (Tx APA+). Put plainly: Kidney transplant recipients cohort: vascular lesions, mGFR, allograft survival. Type of data set: in vivo, human.
Source text: Briefly, the inventors studied a first group of transplant recipients with APA+ (Tx APA+, n=37) and a control group of transplants recipients without APA− (Tx APA−, n=59) engrafted during the same period. These patients were followed in the Transplant unit of Necker Hospital. All patients with functioning allograft had surveillances biopsies and measured glomerular filtration rate (mGFR) at 3- and 12-months post transplantation. Patients had similar immunosuppressive regimen consisting in steroids, purine inhibitor and calcineurine inhibitor, except for thirteen and ten patients in the Tx APA− and Tx APA+ group, respectively, that received sirolimus starting at day 0 instead of calcineurin inhibitor.
as §1
as §2, with “Four-μm sections were stained with Periodic Acid Schiff (PAS), Masson's trichrome and hematoxyin and eosin (H&E). Schiff (PAS), Masson's trichrome and hematoxylin and eosin (HE).” left out, “Autopsy cases were carefully examined by two pathologists at La Pitie Salpetiere Hospital. Vascular lesions, and in particular fibrous intimal hyperplasia, were searched for and characterized in all the tissues.” left out

Data set [4] relates to P-S6RP (mTORC1) in human micro vascular endothelial cells (HMEC). As to the kind of experiment: Western blot of P-S6RP (mTORC1) in HMEC exposed to APA IgG. To be noted: HMEC pretreated one hour with inhibitor (PP242 0.5 μM), then APA IgG 5 minutes. Type of data set: cell-based. On the procedure:
(§3) All experiments were performed in duplicates.
(§4) Western blots were performed as previously described^28. […] Images were acquired using Fusion FX7 system (Vilber Loumart) and analysed using Bio-1D software (Vilber Loumart).

In data set [5] the test system is P-AKT (Ser^473) (mTORC2) in human micro vascular endothelial cells (HMEC). As to the kind of experiment: Western blot of P-AKT (Ser473) (mTORC2) in HMEC exposed to APA IgG. The conditions noted are these: HMEC pretreated one hour with inhibitor (PP242 0.5 μM; LY294002 20 μM), then APA IgG 5 minutes. Type of data set: cell-based. The method, then:
as §3, §4

We go through four compounds from patent US20150258127A1, “METHODS FOR PREVENTING ANTIPHOSPHOLIPID SYNDROME (APS)” (INSERM (INSTITUT NATIONAL DE LA SANTÉ ET DE LA RECHERCHE …, priority 2012, published 2015).

Like-named read-outs stand apart in the source and are kept apart here.

With `C=CC[C@@H]1/C=C(\C)C[C@H](C)C[C@H](OC)[C@H]2O[C@@](O)(C(=O)C(=O)N3CCCC[C@H]3C(=O)O[C@H](/C(C)=C/[C@@H]3CC[C@@H](O)[C@H](OC)C3)[C@H](C)[C@@H](O)CC1=O)[C@H](C)C[C@@H]2OC` [Tacrolimus], the concentration at 12 months in data set [1] (Tx aPL+ Sirolimus− (n = 27), read-out: 12-Mo Tacrolimus trough levels) came out at 10.3 ± 5.9 ng/mL; in data set [1] (Tx aPL− (n = 59), read-out: 12-Mo Tacrolimus trough levels), 10 ± 6 ng/mL.
Regarding `CO[C@H]1C[C@@H]2CC[C@@H](C)[C@@](O)(O2)C(=O)C(=O)N2CCCC[C@H]2C(=O)O[C@H]([C@H](C)C[C@@H]2CC[C@@H](O)[C@H](OC)C2)CC(=O)[C@H](C)/C=C(\C)[C@@H](O)[C@@H](OC)C(=O)[C@H](C)C[C@H](C)/C=C/C=C/C=C/1C` [sirolimus, rapamycin], in data set [2] (Month 3 post-Tx), the “C4d (C4 deposits), Banff score” value is 0.2 ± 0.4; the “g (Glomerulitis), Banff score” value is reported as 0.1 ± 0.4; the “ptc (Peritubular Capillaritis), Banff score” value is reported as 0.1 ± 0.4. For the same compound, in data set [2] (Month 12 post-Tx), the “Banff microcirculation inflammation score” value is listed as 0.1 ± 0.3; the “C4d (C4 deposits), Banff score” value turned out to be 0.1 ± 0.3; the “ptc (Peritubular Capillaritis), Banff score” value is recorded as 0.1 ± 0.3. Besides, the “measured glomerular filtration rate (mGFR)” value in data set [3] (Tx APA+ Siro+ patients, 12 months post transplantation, 39.6±14.6 in APA+ Siro−) is 56 ± 10.8 mL/min. This compound also returned a death-censored allograft survival in data set [3] (Tx aPL+ recipients, 12% without sirolimus) of 70%. Besides, in data set [3] (transplant recipients with antiphospholipid antibodies, 8% without sirolimus, up to 144 months post transplantation), the allograft survival rate is reported as 70%. In addition, the concentration at 12 months in data set [1] (Tx aPL+ Sirolimus+ (n = 10), read-out: 12-Mo Sirolimus levels) amounted to 18 ± 9 ng/mL. Besides, the concentration at 12 months in data set [1] (Tx aPL− (n = 59), read-out: 12-Mo Sirolimus levels) was found to be 16 ± 2 ng/mL.
In the case of `CC(C)n1nc(-c2cc3cc(O)ccc3[nH]2)c2c(N)ncnc21` [PP242], in data set [4], the “APA-induced S6RP phosphorylation” value is listed as “completely abolished”.
As for `O=c1cc(N2CCOCC2)oc2c(-c3ccccc3)cccc12` [LY294002, 2-(4-Morpholinyl)-8-phenyl-4H-1-benzopyran-4-one], the “APA-induced AKT phosphorylation / activation of the AKT pathway” value in data set [5] is “completely prevent”.
